In patent US6642251B1, “Geometrically restricted 2-indolinone derivatives as modulators of protein kinase activity” (Sugen, Inc., priority 1998, dated 2003) one finds IC50 data, which are given here for eleven molecules.

The target of one assay is T1, human flk-1 (Homo sapiens, UniProt P35968).
T1 construct: expressed in transfected cells; host or cells: NIH fibroblast line (Flk-1/NIH cells, clone 3)
In words: Biochemical FLK-1 assay (bio Flk), autophosphorylation ELISA. The method, then: This assay evaluates flk-1 autophosphorylation activity in vitro using ELISA.
1. Seed cell into growth medium and grow for 2-3 days to 90-100% confluency at 37° C. and 5% C)2.
2. Remove the medium and wash the cells twice with PBS. Lyse with HNTG lysis buffer. Collect all lysates and vortex mix them for 20-30 seconds.
3. Remove insoluble material by centrifugation (5-10 min at about 10,000×g).
4. Determine the protein concentration using BCA kit.
5. Partition lysate into 1 mg aliquots, store at −80° C.
1. Coat Corning 96-well ELISA plates with 2 μg/well purified L4 (or E 38) in 100 μl of PBS. Store overnight at 4° C.
2. Remove unbound proteins from wells by inverting the plate to remove the liquid. Wash one time with dH2O pat plate on paper towel to remove excess liquid.
3. Block plates with 150 μl blocking buffer per well. Incubate for 45-60 minutes with shaking at 4° C.
4. Remove the blocking buffer and wash the ELISA plate three times with dH2O and one time with TBST. Pat plate on paper towel to remove excess liquid.
5. Dilute lysate in PBS to give final concentration of 50 μg/100 μl. Add 100 μl of diluted lysate to each well. Incubate with shaking at 4° C. overnight.
6. Remove unbound proteins from wells by inverting the plate. Wash as in step 4.
7. Add 80 μl of kinase buffer to wells (90 μl to negative control wells).
8. Dilute test compounds (normally 10-fold) into wells of a polypropylene plate containing 20% DMSO in TBS.
9. Add 10 μl of the diluted compounds to the ELISA wells containing immobilized flk-1 and shake. Control wells receive no compounds.
10. From stock 1 mM ATP, prepare 0.3 mM ATP solution in dH20 (alternatively, kinase buffer may be used).
11. Add 10 μl of 0.3 mM ATP to all wells except the negative controls. Incubate for 60 min. at room temperature with shaking.
12. After 1 hr stop the kinase reaction by adding 11 μl 200 mM EDTA. Shake for 1-2 min.
13. Wash the ELISA plate 4 times with dH2O and twice with TBST.
14. Add 100 μl of 1:5000 biotinylated 4G10:TBST to all wells. Incubate 45 min with shaking at room temperature.
15. While the above is incubating, add 50 μl of solutions A & B from the ABC kit to 10 ml of TBST. These solutions must be combined approximately 30 min prior to use.
16. Wash plates as in step 4.
17. Add 100 μl of the preformed A & B complex to all wells. Incubate 30 min with shaking at room temperature.
18. Wash plates as in step 4.
19. Add 100 μl turbo-TMB. Shake at room temperature for 10-15 min.
20. When the color in the positive control wells reaches an absorbance of about 0.35-0.4, stop the reaction with 100 μl of turbo-TMB stop solution.
On the technique in general: ELISA stands for enzyme-linked immunosorbent assay.

For another assay, the target named is EGFR (Homo sapiens, UniProt P00533). In words: Biochemical EGFR assay (bio EGFR), ELISA. Further details: A431 cell lysate (Screening Lab, SUGEN, Inc.); endogenous in cells; host or cells: A431. As to conditions: 50% inhibition of target PTK activity; read-out: bio EGFR (Page 5) IC50. The procedure: This assay measures the in vitro kinase activity of EGFR using ELISA.
6. A431 cell lysate (Screening Lab, SUGEN, Inc.)
1. Coat Corning 96 well ELISA plates with 0.5 μg […] in
100 μl PBS per well, store overnight at 4° C.
2. Remove unbound SUMO1 from wells by inverting plate to remove liquid. Wash 1× with dH2O. Pat the plate on a paper towel to remove excess liquid.
3. Add 150 μl of Blocking Buffer to each well. Incubate for 30 min. at room temperature with shaking.
4. Wash plate 3× with deionized water, then once with TBST. Pat plate on a paper towel to remove excess liquid and bubbles.
5. Dilute lysate in PBS (7 μg lysate/100 μl PBS).
6. Add 100 μl of diluted lysate to each well. Shake at room temperature for 60 min.
7. Wash plates as described in 4, above.
8. Add 120 μl TBS to ELISA plate containing captured EGFR.
9. Dilute test compound 1:10 in TBS in 96-well polypropylene plates (ie. 10 μl compound+90 μl TBS).
10. Add 13.5 μl diluted test compound to ELISA plate.
11. Incubate for 30 minutes while shaking at room temperature.
13. After 5 minutes, stop reaction by adding 16.5 μl of 200 mM EDTA (pH 8.0) to each well, shaking continuously. After the EDTA has been added, shake for 1 min.
14. Wash 4× with deionized water, twice with TBST.
15. Add 100 μl anti-phosphotyrosine (1:3000 dilution.in TBST) per well. Incubate 30-45 min. at room temperature, with shaking.
16. Wash as described in 4, above.
17. Add 100 μl Biosource Goat anti-rabbit IgG peroxidase conjugate (1:2000 dilution in TBST) to each well. Incubate 30 min. at room temperature, with shaking.
18. Wash as described in 4, above.
19. Add 100 μl of ABTS/H2O2 solution to each well.
20. Incubate 5 to 10 minutes with shaking. Remove any bubbles.
21. If necessary stop reaction with the addition of 100 μl 0.2 M HCl per well.
22. Read assay on Dynatech MR7000 ELISA reader. Test Filter: 410 nM Reference Filter: 630 nM

The mark [1] stands for this setting: 50% inhibition of target PTK activity, read-out: bio Flk IC50.

Molecules are shown by their SMILES. Where two headings read alike, the source gives them in different places. Some results are limits rather than exact numbers.

T1 sequence (P35968 20-1356): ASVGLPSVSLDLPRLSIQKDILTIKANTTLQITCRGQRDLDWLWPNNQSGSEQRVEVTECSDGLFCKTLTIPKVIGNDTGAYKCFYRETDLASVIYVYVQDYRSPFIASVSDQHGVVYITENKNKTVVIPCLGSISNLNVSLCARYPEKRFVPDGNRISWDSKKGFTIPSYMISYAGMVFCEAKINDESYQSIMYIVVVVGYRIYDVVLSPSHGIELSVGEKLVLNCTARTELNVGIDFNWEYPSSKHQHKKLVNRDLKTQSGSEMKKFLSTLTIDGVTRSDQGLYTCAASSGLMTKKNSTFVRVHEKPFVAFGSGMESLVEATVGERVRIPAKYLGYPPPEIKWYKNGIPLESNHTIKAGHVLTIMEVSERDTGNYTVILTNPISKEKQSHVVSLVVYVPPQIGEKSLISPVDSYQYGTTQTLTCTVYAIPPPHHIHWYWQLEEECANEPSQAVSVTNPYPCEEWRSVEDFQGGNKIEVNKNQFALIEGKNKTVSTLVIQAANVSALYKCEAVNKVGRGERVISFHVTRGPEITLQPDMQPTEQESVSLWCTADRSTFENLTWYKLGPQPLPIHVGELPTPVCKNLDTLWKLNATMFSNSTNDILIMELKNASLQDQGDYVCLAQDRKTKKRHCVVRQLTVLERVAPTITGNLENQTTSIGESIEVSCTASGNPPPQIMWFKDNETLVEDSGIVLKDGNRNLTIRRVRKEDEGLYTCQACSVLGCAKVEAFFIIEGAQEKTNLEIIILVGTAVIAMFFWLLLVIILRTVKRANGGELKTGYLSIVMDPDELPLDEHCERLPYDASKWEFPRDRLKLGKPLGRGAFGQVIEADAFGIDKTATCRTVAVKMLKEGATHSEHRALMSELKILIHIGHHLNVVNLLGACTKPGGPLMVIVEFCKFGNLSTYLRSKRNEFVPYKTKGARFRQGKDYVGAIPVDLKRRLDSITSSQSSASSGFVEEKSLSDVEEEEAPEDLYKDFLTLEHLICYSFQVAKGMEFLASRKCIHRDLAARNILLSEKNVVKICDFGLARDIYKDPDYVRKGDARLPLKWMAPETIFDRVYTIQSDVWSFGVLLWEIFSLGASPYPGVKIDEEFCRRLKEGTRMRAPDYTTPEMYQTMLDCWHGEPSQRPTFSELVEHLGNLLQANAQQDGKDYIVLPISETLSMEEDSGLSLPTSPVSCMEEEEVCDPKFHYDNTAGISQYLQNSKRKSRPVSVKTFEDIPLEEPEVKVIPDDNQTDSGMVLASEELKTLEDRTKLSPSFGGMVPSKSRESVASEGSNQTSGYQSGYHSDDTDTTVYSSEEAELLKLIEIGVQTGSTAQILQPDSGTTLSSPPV
EGFR, sequence (P00533 25-1210): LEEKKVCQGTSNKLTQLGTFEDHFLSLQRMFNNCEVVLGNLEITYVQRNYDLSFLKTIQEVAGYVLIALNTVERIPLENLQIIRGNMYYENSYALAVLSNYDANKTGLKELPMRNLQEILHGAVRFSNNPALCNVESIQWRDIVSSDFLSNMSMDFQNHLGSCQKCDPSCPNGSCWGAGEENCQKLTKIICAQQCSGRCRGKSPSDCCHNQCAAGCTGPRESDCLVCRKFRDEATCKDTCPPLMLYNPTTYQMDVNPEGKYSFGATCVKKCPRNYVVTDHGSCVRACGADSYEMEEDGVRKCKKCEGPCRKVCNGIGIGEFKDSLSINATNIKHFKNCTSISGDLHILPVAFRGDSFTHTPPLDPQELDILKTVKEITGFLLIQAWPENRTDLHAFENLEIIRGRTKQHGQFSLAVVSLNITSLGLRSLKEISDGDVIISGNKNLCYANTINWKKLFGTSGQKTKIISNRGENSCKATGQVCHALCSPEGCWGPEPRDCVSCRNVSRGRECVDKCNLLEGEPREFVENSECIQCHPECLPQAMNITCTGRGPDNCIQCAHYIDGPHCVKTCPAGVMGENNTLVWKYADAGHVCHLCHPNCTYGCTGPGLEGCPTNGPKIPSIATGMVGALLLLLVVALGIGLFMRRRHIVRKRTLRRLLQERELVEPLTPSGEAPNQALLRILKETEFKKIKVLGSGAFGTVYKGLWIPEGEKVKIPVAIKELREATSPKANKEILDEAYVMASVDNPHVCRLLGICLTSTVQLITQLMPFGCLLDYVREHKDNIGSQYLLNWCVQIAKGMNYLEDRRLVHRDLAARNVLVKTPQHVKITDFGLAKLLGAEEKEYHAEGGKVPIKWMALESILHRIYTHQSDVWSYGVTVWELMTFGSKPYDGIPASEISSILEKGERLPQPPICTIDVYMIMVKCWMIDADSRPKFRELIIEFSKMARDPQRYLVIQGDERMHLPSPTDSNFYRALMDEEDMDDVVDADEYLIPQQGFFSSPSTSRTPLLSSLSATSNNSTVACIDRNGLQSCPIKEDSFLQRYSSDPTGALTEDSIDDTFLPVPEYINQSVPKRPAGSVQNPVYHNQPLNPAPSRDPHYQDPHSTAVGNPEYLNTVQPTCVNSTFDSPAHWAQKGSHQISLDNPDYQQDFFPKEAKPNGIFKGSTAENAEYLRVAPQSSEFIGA

A word on the IC50: it is the concentration needed to halve the response being measured. Consider `COc1cc2c(cc1OC)/C(=C1\C(=O)Nc3ccccc31)CC2` [Compound 12, 3-(5,6-Dimethoxyindan-1-ylidene)-1,3-dihydroindol-2-one], for which the IC50 at human flk-1 (setting [1]) and at EGFR was more than 25 µM throughout.

Turning to `O=C1Nc2ccccc2/C1=C1\CCc2cc(Cl)ccc21` [Compound 7, 3-(5-Chloroindan-1-ylidene)-1,3-dihydroindol-2-one], the values for the IC50 at human flk-1 (setting [1]) and at EGFR were 7.1 µM and more than 100 µM, respectively. Turning to `COc1ccc2c(c1)C(CC(=O)[O-])CC2=C1C(=O)Nc2ccccc21.[Na+]` (stereo not drawn) [Compound 13, [6-Methoxy-3-(2-oxo-1,2-dihydroindol-3-ylidene)-indan-1-yl]acetic Acid Sodium Salt], the IC50 at EGFR is more than 100 µM. Take `O=C1Nc2ccccc2/C1=C1\CCc2cc(N3CCCCC3)ccc21` [Compound 8, 3-(5-Piperidin-1-yl-indan-1-ylidene)-1,3-dihydroindol-2-one]: the figures for the IC50 on human flk-1 (setting [1]) and at EGFR were 4.3 µM and more than 100 µM, respectively. In the case of `O=C1Nc2ccccc2/C1=C1\CCc2cc(Br)ccc21` [Compound 9, 3-(5-Bromoindan-1-ylidene)-1,3-dihydroindol-2-one], the IC50 on human flk-1 (setting [1]) was 2.9 µM; at EGFR, more than 100 µM. As to `COc1ccc2c(c1)CC/C2=C1/C(=O)Nc2ccccc21` [Compound 3, 3-(5-Methoxyindan-1-ylidene)-1,3-dihydroindol-2-one], the IC50 on human flk-1 was 2.6 µM; at EGFR, more than 100 µM.

With `O=C1Nc2ccccc2/C1=C1\CCc2ccccc21` [Compound 10, 3-Indan-1-ylidene-1,3-dihydroindol-2-one], the IC50 at human flk-1 (setting [1]) was 1.4 µM; at EGFR it was more than 100 µM.

For the molecule `CC1C/C(=C2/C(=O)Nc3ccccc32)c2ccccc21` (stereo not drawn) [Compound 1, 3-(3-methylindan-1-ylidene)-1,3-dihydroindol-2-one], the results for the IC50 on human flk-1 (setting [1]) and on EGFR were 18.4 µM and more than 100 µM, respectively.

Regarding `CN(C)c1ccc2c(c1)CC/C2=C1/C(=O)Nc2ccccc21` [Compound 5, 3-(5-Dimethylaminoindan-1-ylidene)-1,3-dihydroindol-2-one], the 50% inhibitory concentration (IC50) on human flk-1 (setting [1]) is 3.1 µM; at EGFR, more than 100 µM. `COc1ccc2c(c1)C(CC(=O)O)C/C2=C1/C(=O)Nc2ccccc21` (stereo not drawn) [Compound 11, [6-Methoxy-3-(2-oxo-1,2-dihydroindol-3-ylidene)-indan-1-yl]acetic Acid]: the half-maximal inhibitory concentration (IC50) is 0.02 µM on human flk-1 (setting [1]) and more than 100 µM on EGFR. With `Cc1cccc2c1CC/C2=C1/C(=O)Nc2ccccc21` [Compound 2, 3-(4-Methylindan-1-ylidene)-1,3-dihydroindol-2-one], the IC50 on human flk-1 (setting [1]) is 8.2 µM; at EGFR, more than 100 µM.
